# Results published in PMC10728897, “High-Throughput Engineering of Nonribosomal Extension Modules” (ACS Chemical Biology, 2023).
# Tests used:
# TycC6 C-A-T tridomain = molecular target: T1, TycC6 C-A-T tridomain (Brevibacillus parabrevis, UniProt O30409); test: yeast surface display loading assay, click biotinylation, flow cytometry; format: cell-based; conditions: 20 and 50 mM pGly, 0.1 mM ATP, 1 mM MgCl2, pH 7.4, 25 C; covalent loading on ppant of T domain; modest efficiency
# T1 construct: gene tycC; ppant installed by Sfp
# T1 sequence (O30409 5200-6255 limits assumed): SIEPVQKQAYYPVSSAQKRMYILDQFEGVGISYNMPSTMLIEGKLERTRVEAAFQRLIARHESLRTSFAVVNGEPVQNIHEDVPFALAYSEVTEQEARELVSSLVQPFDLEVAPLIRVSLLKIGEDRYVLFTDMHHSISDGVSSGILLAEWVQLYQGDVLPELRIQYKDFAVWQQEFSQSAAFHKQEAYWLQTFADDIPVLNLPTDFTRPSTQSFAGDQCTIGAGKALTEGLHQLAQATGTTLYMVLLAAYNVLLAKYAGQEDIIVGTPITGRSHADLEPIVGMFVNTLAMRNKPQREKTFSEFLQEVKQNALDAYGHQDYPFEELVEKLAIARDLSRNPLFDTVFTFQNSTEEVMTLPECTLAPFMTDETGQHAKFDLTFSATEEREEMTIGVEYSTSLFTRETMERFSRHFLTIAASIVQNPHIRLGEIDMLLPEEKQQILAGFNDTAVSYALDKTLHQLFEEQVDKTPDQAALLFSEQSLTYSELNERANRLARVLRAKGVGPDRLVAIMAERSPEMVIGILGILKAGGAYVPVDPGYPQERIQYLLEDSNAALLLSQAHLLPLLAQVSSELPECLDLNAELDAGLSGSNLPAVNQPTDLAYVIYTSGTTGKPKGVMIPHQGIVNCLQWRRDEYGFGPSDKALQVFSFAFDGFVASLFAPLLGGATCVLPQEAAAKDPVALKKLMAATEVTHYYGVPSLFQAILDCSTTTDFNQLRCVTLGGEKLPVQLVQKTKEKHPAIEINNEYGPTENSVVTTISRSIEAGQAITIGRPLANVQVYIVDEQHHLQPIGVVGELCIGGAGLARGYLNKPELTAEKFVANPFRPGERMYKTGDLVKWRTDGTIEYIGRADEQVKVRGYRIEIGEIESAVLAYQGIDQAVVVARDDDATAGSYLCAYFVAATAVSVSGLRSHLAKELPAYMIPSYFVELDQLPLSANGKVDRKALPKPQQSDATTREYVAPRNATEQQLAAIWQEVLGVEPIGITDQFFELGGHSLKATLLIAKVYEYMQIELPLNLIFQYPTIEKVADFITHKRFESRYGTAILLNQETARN
# TycB2 A-T bidomain = molecular target: T2, TycB2 A-T bidomain (Brevibacillus parabrevis, UniProt O30408, M1767A/M1802I, form not given); test: as above; format: cell-based; conditions: 0.5 mM pPhe with 0.5 mM L-Phe as competitor, 0.1 mM ATP, pH 7.4, 25 C; covalent loading on ppant of T domain
# T2 construct: gene tycB; ppant installed by Sfp
# T2 sequence (O30408 1530-2090 M1767A/M1802I, form open): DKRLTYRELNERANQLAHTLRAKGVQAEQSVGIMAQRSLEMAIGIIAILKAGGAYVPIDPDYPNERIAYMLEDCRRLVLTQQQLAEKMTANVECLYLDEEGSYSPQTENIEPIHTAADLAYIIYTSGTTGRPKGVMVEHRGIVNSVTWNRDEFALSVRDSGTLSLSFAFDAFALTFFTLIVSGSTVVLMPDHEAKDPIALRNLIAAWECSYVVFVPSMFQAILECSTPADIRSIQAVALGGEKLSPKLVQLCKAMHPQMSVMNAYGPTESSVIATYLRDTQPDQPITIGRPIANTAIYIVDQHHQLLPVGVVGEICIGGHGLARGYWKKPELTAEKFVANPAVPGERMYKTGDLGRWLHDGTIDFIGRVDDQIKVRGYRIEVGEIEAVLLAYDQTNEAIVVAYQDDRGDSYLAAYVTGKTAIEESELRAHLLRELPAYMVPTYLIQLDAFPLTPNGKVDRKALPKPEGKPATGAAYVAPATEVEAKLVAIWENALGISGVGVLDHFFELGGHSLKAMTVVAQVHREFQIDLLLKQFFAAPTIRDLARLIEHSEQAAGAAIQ
smiles,measurement,setting,value
"C#CCC(N)C(=O)O (centres unmarked) [pGly, propargyl glycine]","yeast surface display loading assay, click biotinylation, flow cytometry",TycC6 C-A-T tridomain,the displayed module was found to activate pGly in a concentration-dependent manner
"C#CCOc1ccc(C[C@H](N)C(=O)O)cc1 [pPhe, 4-propargyloxy-L-phenylalanine]","yeast surface display loading assay, click biotinylation, flow cytometry",TycB2 A-T bidomain,the variant with the M1768A and M1803I mutations was the most active and selective
